Measurements from the NIST ThermoML archive (doi:10.1021/acs.jced.8b00554).
Numbers after ± are expanded uncertainties.

Experiments:
[1] = Liquid, Vibrating tube method
[2] = refractive index (Na D-line) (dimensionless); settings: 298.15 K; 101.33 kPa; Liquid; Standard Abbe refractometry

Compound: CCCCCCCC [octane]
- mass density ([1]; 313.15 K, 100 kPa): 686.05 ± 4.1 kg/m3
- mass density ([1]; 313.15 K, 1030 kPa): 687.19 ± 4.1 kg/m3
- mass density ([1]; 313.15 K, 1950 kPa): 688.13 ± 4.1 kg/m3
- mass density ([1]; 313.15 K, 2950 kPa): 689.08 ± 4.1 kg/m3
- mass density ([1]; 313.15 K, 3960 kPa): 690 ± 4.1 kg/m3
- mass density ([1]; 313.15 K, 4960 kPa): 690.87 ± 4.2 kg/m3
- mass density ([1]; 313.15 K, 5970 kPa): 691.78 ± 4.2 kg/m3
- mass density ([1]; 313.15 K, 6970 kPa): 692.65 ± 4.2 kg/m3
- mass density ([1]; 313.15 K, 7980 kPa): 693.54 ± 4.2 kg/m3
- mass density ([1]; 313.15 K, 8980 kPa): 694.38 ± 4.2 kg/m3
- mass density ([1]; 313.15 K, 9990 kPa): 695.26 ± 4.2 kg/m3
- mass density ([1]; 313.15 K, 11030 kPa): 696.11 ± 4.2 kg/m3
- mass density ([1]; 313.15 K, 11950 kPa): 696.94 ± 4.2 kg/m3
- mass density ([1]; 313.15 K, 12950 kPa): 697.75 ± 4.2 kg/m3
- mass density ([1]; 313.15 K, 13960 kPa): 698.56 ± 4.2 kg/m3
- mass density ([1]; 313.15 K, 14960 kPa): 699.37 ± 4.2 kg/m3
- mass density ([1]; 313.15 K, 15970 kPa): 700.18 ± 4.2 kg/m3
- mass density ([1]; 313.15 K, 16970 kPa): 700.99 ± 4.2 kg/m3
- mass density ([1]; 313.15 K, 17980 kPa): 701.77 ± 4.2 kg/m3
- mass density ([1]; 313.15 K, 18980 kPa): 702.53 ± 4.2 kg/m3
- mass density ([1]; 313.15 K, 19990 kPa): 703.31 ± 4.2 kg/m3
- mass density ([1]; 323.15 K, 100 kPa): 677.56 ± 4.1 kg/m3
- mass density ([1]; 323.15 K, 950 kPa): 678.99 ± 4.1 kg/m3
- mass density ([1]; 323.15 K, 1960 kPa): 680.02 ± 4.1 kg/m3
- mass density ([1]; 323.15 K, 2970 kPa): 681.01 ± 4.1 kg/m3
- mass density ([1]; 323.15 K, 3980 kPa): 681.99 ± 4.1 kg/m3
- mass density ([1]; 323.15 K, 4980 kPa): 682.97 ± 4.1 kg/m3
- mass density ([1]; 323.15 K, 5980 kPa): 683.91 ± 4.1 kg/m3
- mass density ([1]; 323.15 K, 6990 kPa): 684.86 ± 4.1 kg/m3
- mass density ([1]; 323.15 K, 7990 kPa): 685.78 ± 4.1 kg/m3
- mass density ([1]; 323.15 K, 9000 kPa): 686.69 ± 4.1 kg/m3
- mass density ([1]; 323.15 K, 10090 kPa): 687.59 ± 4.1 kg/m3
- mass density ([1]; 323.15 K, 10950 kPa): 688.51 ± 4.1 kg/m3
- mass density ([1]; 323.15 K, 11960 kPa): 689.4 ± 4.2 kg/m3
- mass density ([1]; 323.15 K, 12970 kPa): 690.29 ± 4.2 kg/m3
- mass density ([1]; 323.15 K, 13980 kPa): 691.16 ± 4.2 kg/m3
- mass density ([1]; 323.15 K, 14980 kPa): 691.98 ± 4.2 kg/m3
- mass density ([1]; 323.15 K, 15980 kPa): 692.86 ± 4.2 kg/m3
- mass density ([1]; 323.15 K, 16990 kPa): 693.68 ± 4.2 kg/m3
- mass density ([1]; 323.15 K, 17990 kPa): 694.53 ± 4.2 kg/m3
- mass density ([1]; 323.15 K, 19000 kPa): 695.33 ± 4.2 kg/m3
- mass density ([1]; 323.15 K, 20090 kPa): 696.18 ± 4.2 kg/m3
- mass density ([1]; 333.15 K, 100 kPa): 669.13 ± 4 kg/m3
- mass density ([1]; 333.15 K, 1050 kPa): 670.67 ± 4 kg/m3
- mass density ([1]; 333.15 K, 1940 kPa): 671.75 ± 4 kg/m3
- mass density ([1]; 333.15 K, 2950 kPa): 672.81 ± 4 kg/m3
- mass density ([1]; 333.15 K, 3950 kPa): 673.87 ± 4 kg/m3
- mass density ([1]; 333.15 K, 4960 kPa): 674.91 ± 4 kg/m3
- mass density ([1]; 333.15 K, 5960 kPa): 675.95 ± 4.1 kg/m3
- mass density ([1]; 333.15 K, 6960 kPa): 676.93 ± 4.1 kg/m3
- mass density ([1]; 333.15 K, 7990 kPa): 677.93 ± 4.1 kg/m3
- mass density ([1]; 333.15 K, 8990 kPa): 678.93 ± 4.1 kg/m3
- mass density ([1]; 333.15 K, 10000 kPa): 679.89 ± 4.1 kg/m3
- mass density ([1]; 333.15 K, 11050 kPa): 680.86 ± 4.1 kg/m3
- mass density ([1]; 333.15 K, 11940 kPa): 681.81 ± 4.1 kg/m3
- mass density ([1]; 333.15 K, 12950 kPa): 682.71 ± 4.1 kg/m3
- mass density ([1]; 333.15 K, 13950 kPa): 683.67 ± 4.1 kg/m3
- mass density ([1]; 333.15 K, 14960 kPa): 684.58 ± 4.1 kg/m3
- mass density ([1]; 333.15 K, 15960 kPa): 685.48 ± 4.1 kg/m3
- mass density ([1]; 333.15 K, 16960 kPa): 686.34 ± 4.1 kg/m3
- mass density ([1]; 333.15 K, 17990 kPa): 687.26 ± 4.1 kg/m3
- mass density ([1]; 333.15 K, 18990 kPa): 688.1 ± 4.1 kg/m3
- mass density ([1]; 333.15 K, 20000 kPa): 688.97 ± 4.2 kg/m3
- mass density ([1]; 343.15 K, 100 kPa): 661.02 ± 4 kg/m3
- mass density ([1]; 343.15 K, 960 kPa): 662.23 ± 4 kg/m3
- mass density ([1]; 343.15 K, 1970 kPa): 663.39 ± 4 kg/m3
- mass density ([1]; 343.15 K, 2980 kPa): 664.55 ± 4 kg/m3
- mass density ([1]; 343.15 K, 3980 kPa): 665.65 ± 4 kg/m3
- mass density ([1]; 343.15 K, 4990 kPa): 666.79 ± 4 kg/m3
- mass density ([1]; 343.15 K, 5990 kPa): 667.86 ± 4 kg/m3
- mass density ([1]; 343.15 K, 7000 kPa): 668.94 ± 4 kg/m3
- mass density ([1]; 343.15 K, 8010 kPa): 670.02 ± 4 kg/m3
- mass density ([1]; 343.15 K, 9010 kPa): 671.05 ± 4 kg/m3
- mass density ([1]; 343.15 K, 10100 kPa): 672.12 ± 4 kg/m3
- mass density ([1]; 343.15 K, 10960 kPa): 673.13 ± 4 kg/m3
- mass density ([1]; 343.15 K, 11970 kPa): 674.15 ± 4 kg/m3
- mass density ([1]; 343.15 K, 12980 kPa): 675.12 ± 4.1 kg/m3
- mass density ([1]; 343.15 K, 13980 kPa): 676.13 ± 4.1 kg/m3
- mass density ([1]; 343.15 K, 14990 kPa): 677.1 ± 4.1 kg/m3
- mass density ([1]; 343.15 K, 15990 kPa): 678.03 ± 4.1 kg/m3
- mass density ([1]; 343.15 K, 17000 kPa): 678.97 ± 4.1 kg/m3
- mass density ([1]; 343.15 K, 18010 kPa): 679.93 ± 4.1 kg/m3
- mass density ([1]; 343.15 K, 19010 kPa): 680.86 ± 4.1 kg/m3
- mass density ([1]; 343.15 K, 20100 kPa): 681.78 ± 4.1 kg/m3
- mass density ([1]; 353.15 K, 100 kPa): 652.22 ± 3.9 kg/m3
- mass density ([1]; 353.15 K, 1060 kPa): 653.65 ± 3.9 kg/m3
- mass density ([1]; 353.15 K, 1940 kPa): 654.91 ± 3.9 kg/m3
- mass density ([1]; 353.15 K, 2950 kPa): 656.12 ± 3.9 kg/m3
- mass density ([1]; 353.15 K, 3960 kPa): 657.35 ± 4 kg/m3
- mass density ([1]; 353.15 K, 4960 kPa): 658.54 ± 4 kg/m3
- mass density ([1]; 353.15 K, 5960 kPa): 659.71 ± 4 kg/m3
- mass density ([1]; 353.15 K, 6970 kPa): 660.9 ± 4 kg/m3
- mass density ([1]; 353.15 K, 7980 kPa): 662.03 ± 4 kg/m3
- mass density ([1]; 353.15 K, 8980 kPa): 663.17 ± 4 kg/m3
- mass density ([1]; 353.15 K, 9980 kPa): 664.24 ± 4 kg/m3
- mass density ([1]; 353.15 K, 11060 kPa): 665.33 ± 4 kg/m3
- mass density ([1]; 353.15 K, 11940 kPa): 666.44 ± 4 kg/m3
- mass density ([1]; 353.15 K, 12950 kPa): 667.49 ± 4 kg/m3
- mass density ([1]; 353.15 K, 13960 kPa): 668.52 ± 4 kg/m3
- mass density ([1]; 353.15 K, 14960 kPa): 669.56 ± 4 kg/m3
- mass density ([1]; 353.15 K, 15960 kPa): 670.6 ± 4 kg/m3
- mass density ([1]; 353.15 K, 16970 kPa): 671.6 ± 4 kg/m3
- mass density ([1]; 353.15 K, 17980 kPa): 672.57 ± 4 kg/m3
- mass density ([1]; 353.15 K, 18980 kPa): 673.56 ± 4.1 kg/m3
- mass density ([1]; 353.15 K, 19980 kPa): 674.52 ± 4.1 kg/m3
- mass density ([1]; 363.15 K, 100 kPa): 643.71 ± 3.9 kg/m3
- mass density ([1]; 363.15 K, 950 kPa): 644.91 ± 3.9 kg/m3
- mass density ([1]; 363.15 K, 1960 kPa): 646.3 ± 3.9 kg/m3
- mass density ([1]; 363.15 K, 2970 kPa): 647.63 ± 3.9 kg/m3
- mass density ([1]; 363.15 K, 3970 kPa): 648.92 ± 3.9 kg/m3
- mass density ([1]; 363.15 K, 4980 kPa): 650.23 ± 3.9 kg/m3
- mass density ([1]; 363.15 K, 5980 kPa): 651.49 ± 3.9 kg/m3
- mass density ([1]; 363.15 K, 6990 kPa): 652.73 ± 3.9 kg/m3
- mass density ([1]; 363.15 K, 7990 kPa): 653.97 ± 3.9 kg/m3
- mass density ([1]; 363.15 K, 8990 kPa): 655.15 ± 3.9 kg/m3
- mass density ([1]; 363.15 K, 10090 kPa): 656.34 ± 4 kg/m3
- mass density ([1]; 363.15 K, 10950 kPa): 657.54 ± 4 kg/m3
- mass density ([1]; 363.15 K, 11960 kPa): 658.66 ± 4 kg/m3
- mass density ([1]; 363.15 K, 12970 kPa): 659.79 ± 4 kg/m3
- mass density ([1]; 363.15 K, 13970 kPa): 660.94 ± 4 kg/m3
- mass density ([1]; 363.15 K, 14980 kPa): 662.01 ± 4 kg/m3
- mass density ([1]; 363.15 K, 15980 kPa): 663.09 ± 4 kg/m3
- mass density ([1]; 363.15 K, 16990 kPa): 664.19 ± 4 kg/m3
- mass density ([1]; 363.15 K, 17990 kPa): 665.21 ± 4 kg/m3
- mass density ([1]; 363.15 K, 18990 kPa): 666.28 ± 4 kg/m3
- mass density ([1]; 363.15 K, 20090 kPa): 667.28 ± 4 kg/m3
- refractive index [2]: 1.398 ± 0.004
